In experiment [1] the test system is K562 (chronic myelogenous leukaemia). The experiment in a line: Effect of compounds on tumor cell lines (assay of Latham et al.), K562. Format: cell-based. The following applies: K562 cells, 96 hours after treatment, 1 μM to 100 μM; read-out: K 562 potency (IC50). The gist of the method: (§1)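 K562 or DU145 cells plated at 2.5×10^4 cells/well, treated 24 h later with compound in DMSO at 1 μM to 100 μM (0.1 μM to 100 μM for one compound). Activity judged by microscopic observation after 96 h; where needed, viable cells counted by trypan blue exclusion.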

For experiment [2], the system named is DU145 (prostate cancer). Briefly: Effect of compounds on tumor cell lines (assay of Latham et al.), DU145. Format: cell-based. Conditions: DU145 cells, 96 hours after treatment, 1 μM to 100 μM; read-out: DU 145 potency (IC50). The gist of the method:
as §1

Some results are limits rather than exact numbers.

Broadly, the IC50 is the point on the concentration scale where inhibition reaches its midpoint. Take `COc1ccc(C=C(SCc2ccc(F)cc2)C(=O)c2ccc(Br)cc2)cc1` [Example 265]: the figures for the IC50 in experiment [1] and in experiment [2] were 1 to 10 µM and 25 to 50 µM, respectively.
Take `O=C(C(=Cc1c[nH]c2ccc(Cl)cc12)SCc1ccc(F)cc1)c1ccc(Br)cc1` [Example 267]: the IC50 in experiment [1] and in experiment [2] was 1 to 10 µM each time.
Take `Cc1ccc(CSC(=Cc2ccc(O)c(O)c2O)C(=O)c2ccc(Cl)cc2)cc1` [Example 270]: the IC50 in experiment [1] and in experiment [2] was 50 to 100 µM in each case.
`Cc1ccc(CSC(=Cc2cccc(Cl)c2Cl)C(=O)c2ccc(Cl)cc2)cc1` [Example 271]: the IC50 in experiment [1] and in experiment [2] was 25 to 50 µM each time.
With `Cc1ccc(CSC(=Cc2c(O)cc(O)cc2O)C(=O)c2ccc(Cl)cc2)cc1` [Example 272], the IC50 in experiment [1] and in experiment [2] was 50 to 100 µM in each case.
For the compound `Cc1ccc(CSC(=Cc2cc(C)ccc2C)C(=O)c2ccc(Cl)cc2)cc1` [Example 273], the IC50 in experiment [1] and in experiment [2] was 10 to 25 µM in each case.
As to `Cc1ccc(CSC(=Cc2ccccc2OCc2ccccc2)C(=O)c2ccc(Cl)cc2)cc1` [Example 274], the IC50 in experiment [1] and in experiment [2] was 1 to 10 µM throughout.
Consider `Cc1ccc(CSC(=Cc2cc([N+](=O)[O-])ccc2F)C(=O)c2ccc(Cl)cc2)cc1` [Example 276], for which the IC50 in experiment [1] and in experiment [2] was 1 to 10 µM each time.
For the compound `Cc1ccc(CSC(=Cc2ccccc2F)C(=O)c2ccc(Br)cc2)cc1` [Example 277], the IC50 was 1 to 10 µM in experiment [1] and 10 to 25 µM in experiment [2].
Taken in the same sequence, the figures for `COc1ccccc1C=C(SCc1ccc(C)cc1)C(=O)c1ccc(Cl)cc1` [Example 279] were 10 to 25 µM and 10 to 25 µM.
For the compound `Cc1ccc(CSC(=Cc2ccc[nH]2)C(=O)c2ccc(Cl)cc2)cc1` [Example 280], the IC50 in experiment [1] was in the range of 1 to 10 µM; in experiment [2], 25 to 50 µM.
The matching figures for `Cc1ccc(CSC(=Cc2cc(Cl)cc(Cl)c2)C(=O)c2ccc(Cl)cc2)cc1` [Example 281]: 10 to 25 µM and 10 to 25 µM.
The matching figures for `Cc1ccc(CSC(=Cc2sccc2C)C(=O)c2ccc(Cl)cc2)cc1` [Example 283]: 10 to 25 µM and 10 to 25 µM.
Regarding `CCN(CC)CCNC(=O)c1c(C)[nH]c(C=C(SCc2ccc(C)cc2)C(=O)c2ccc(C(=O)O)cc2)c1C` [Example 284], the IC50 in experiment [1] and in experiment [2] was 50 to 100 µM throughout.
In the case of `Cc1ccc(CSC(=Cc2ccc(N(C)C)cc2)C(=O)c2ccc(Cl)cc2)cc1` [Example 285], the IC50 in experiment [1] and in experiment [2] was 10 to 25 µM in each case.
As for `Cc1ccc(CSC(=Cc2ccc(Br)cc2)C(=O)c2ccc(Cl)cc2)cc1` [Example 286], the IC50 in experiment [1] lay within 1 to 10 µM; in experiment [2] it was 10 to 25 µM.
Taken in the same sequence, the figures for `Cc1ccc(CSC(=Cc2ccc(Cl)c([N+](=O)[O-])c2)C(=O)c2ccc(C(=O)O)cc2)cc1` [Example 287] were no more than 1 µM and 1 to 10 µM.
The matching figures for `Cc1ccc(CSC(=Cc2ccc(Cl)cc2)C(=O)c2ccc(Cl)cc2)cc1` [Example 288]: 1 to 10 µM and 10 to 25 µM.
`CCOc1ccc(C=C(SCc2ccc(C)cc2)C(=O)c2ccc(Cl)cc2)cc1OC` [Example 289]: the IC50 in experiment [1] and in experiment [2] was 25 to 50 µM in each case.
As for `Cc1ccc(CSC(=Cc2ccc(F)cc2C(F)(F)F)C(=O)c2ccc(Cl)cc2)cc1` [Example 290], the IC50 in experiment [1] and in experiment [2] was 50 to 100 µM throughout.
For `Cc1ccc(CSC(=Cc2ccc(F)c(C)c2)C(=O)c2ccc(Cl)cc2)cc1` [Example 291], the IC50 is 10 to 25 µM in experiment [1] and 25 to 50 µM in experiment [2].
The matching figures for `Cc1ccc(CSC(=Cc2ccc(O)cc2)C(=O)c2ccc(Cl)cc2)cc1` [Example 292]: 1 to 10 µM and 10 to 25 µM.
The matching figures for `CSc1ccc(C=C(SCc2ccc(C)cc2)C(=O)c2ccc(Br)cc2)cc1` [Example 293]: 25 to 50 µM and greater than 100 µM.
Take `CSc1ccc(C=C(SCc2ccc(C)cc2)C(=O)c2ccc(Cl)cc2)cc1` [Example 294]: the IC50 was 10 to 25 µM in experiment [1] and 25 to 50 µM in experiment [2].
Take `Cc1ccc(CSC(=Cc2c[nH]c3ccc(Br)cc23)C(=O)c2ccc(Cl)cc2)cc1` [Example 295]: the IC50 in experiment [1] and in experiment [2] was 1 to 10 µM each time.
For `Cc1ccc(CSC(=Cc2c[nH]c3ccc(Cl)cc23)C(=O)c2ccc(Cl)cc2)cc1` [Example 296], the IC50 in experiment [1] and in experiment [2] was 1 to 10 µM in each case.
Turning to `Cc1ccc(CSC(=Cc2ccc(C)s2)C(=O)c2ccc(Cl)cc2)cc1` [Example 298], the IC50 in experiment [1] and in experiment [2] was 50 to 100 µM throughout.
Regarding `O=C(O)c1ccc(C(=O)C(=Cc2ccc(Br)c([N+](=O)[O-])c2)SCc2ccc(Cl)cc2Cl)cc1` [Example 299], the IC50 in experiment [1] was no more than 1 µM; in experiment [2], 1 to 10 µM.
Regarding `O=C(O)c1ccc(C(=O)C(=Cc2ccc(Cl)c([N+](=O)[O-])c2)SCc2ccc(Cl)cc2Cl)cc1` [Example 300], the IC50 is no more than 1 µM in experiment [1] and 1 to 10 µM in experiment [2].
The matching figures for `O=C(O)c1ccc(C(=O)C(=Cc2ccc(F)c([N+](=O)[O-])c2)SCc2ccc(Cl)cc2Cl)cc1` [Example 301]: no more than 1 µM and 1 to 10 µM.
Taken in the same sequence, the figures for `O=C(O)c1ccc(C(=O)C(=Cc2ccc(Br)c([N+](=O)[O-])c2)SCc2ccccc2Cl)cc1` [Example 302] were 1 to 10 µM and 1 to 10 µM.
The matching figures for `O=C(O)c1ccc(C(=O)C(=Cc2ccc(F)c([N+](=O)[O-])c2)SCc2ccccc2Cl)cc1` [Example 303]: 1 to 10 µM and 1 to 10 µM.
For `O=C(O)c1ccc(C(=O)C(=Cc2ccc(Cl)c([N+](=O)[O-])c2)SCc2ccccc2F)cc1` [Example 304], the IC50 is no more than 1 µM in experiment [1] and 1 to 10 µM in experiment [2].
With `COc1cc(OC)c(OC)cc1C=C(SCc1ccc(Br)cc1)C(=O)c1ccc([N+](=O)[O-])cc1` [Example 305], the IC50 in experiment [1] and in experiment [2] was 10 to 25 µM in each case.
With `O=C(O)c1ccc(C(=O)C(=Cc2ccccc2F)SCc2ccc(Br)cc2)cc1` [Example 306], the IC50 in experiment [1] and in experiment [2] was 10 to 25 µM throughout.
On to `CC1=CC(=O)C(C)=C(C(C)(C)CC(=O)Oc2cc(C=C(SCc3ccc(Br)cc3)C(=O)c3ccc(Br)cc3)ccc2[N+](=O)[O-])C1=O` [Example 307], for which the concentration for half-maximal inhibition (IC50) in experiment [1] and in experiment [2] was 1 to 10 µM throughout.
For `CN1CCN(c2ccc(C=C(SCc3ccc(Br)cc3)C(=O)c3ccc(C(=O)O)cc3)cc2[N+](=O)[O-])CC1` [Example 308], the IC50 in experiment [1] fell in the range of 1 to 10 µM; in experiment [2], 10 to 25 µM.
`CCOC(=O)c1c(C)[nH]c(C=C(SCc2ccc(Br)cc2)C(=O)c2ccc(SCc3ccc(Br)cc3)c([N+](=O)[O-])c2)c1C` [Example 309]: the IC50 in experiment [1] and in experiment [2] was greater than 100 µM throughout.
Consider `O=C(C(=Cc1ccc(F)c([N+](=O)[O-])c1)SCc1ccc(Br)cc1)c1c(F)c(F)c(F)c(F)c1F` [Example 310], for which the IC50 in experiment [1] and in experiment [2] was 1 to 10 µM in each case.
As for `CN1CCN(CCNC(=O)c2ccc(C(=O)C(=Cc3ccc(F)c([N+](=O)[O-])c3)SCc3ccc(Br)cc3)cc2)CC1` [Example 311], the figures for the IC50 in experiment [1] and in experiment [2] were no more than 1 µM and 1 to 10 µM, respectively.
Taken in the same sequence, the figures for `O=C(NCCN1CCOCC1)c1ccc(C(=O)C(=Cc2ccc(F)c([N+](=O)[O-])c2)SCc2ccc(Br)cc2)cc1` [Example 312] were 1 to 10 µM and 1 to 10 µM.
`CCN(CC)CCNC(=O)c1ccc(C(=O)C(=Cc2ccc(F)c([N+](=O)[O-])c2)SCc2ccc(Br)cc2)cc1` [Example 313]: the IC50 was no more than 1 µM in experiment [1] and 1 to 10 µM in experiment [2].
The matching figures for `CN1CCN(CCCNC(=O)c2ccc(C(=O)C(=Cc3ccc(F)c([N+](=O)[O-])c3)SCc3ccc(Br)cc3)cc2)CC1` [Example 314]: 1 to 10 µM and 1 to 10 µM.
The matching figures for `O=C(C(=Cc1ccc(F)c([N+](=O)[O-])c1)SCc1ccc(Br)cc1)c1ccc(C(=O)N2CCN(c3ccc(C(F)(F)F)cn3)CC2)cc1` [Example 315]: 1 to 10 µM and 1 to 10 µM.
The matching figures for `O=C(C(=Cc1ccc(F)c([N+](=O)[O-])c1)SCc1ccc(Br)cc1)c1ccc(C(=O)N2CCN(CCO)CC2)cc1` [Example 316]: no more than 1 µM and no more than 1 µM.
In the case of `O=C(C(=Cc1ccc(F)c([N+](=O)[O-])c1)SCc1ccc(Br)cc1)c1ccc(Cl)c([N+](=O)[O-])c1` [Example 317], the IC50 in experiment [1] and in experiment [2] was greater than 100 µM throughout.
For the compound `O=C(C(=Cc1ccc(F)c([N+](=O)[O-])c1)SCc1ccc(Br)cc1)c1ccc(F)cc1` [Example 318], the IC50 in experiment [1] and in experiment [2] was no more than 1 µM each time.
In the case of `O=C(C(=Cc1ccc(F)cc1)SCc1ccc(Br)cc1)c1ccc(SCc2ccc(Br)cc2)c([N+](=O)[O-])c1` [Example 319], the IC50 in experiment [1] and in experiment [2] was greater than 100 µM each time.
Regarding `O=C(C(=Cc1ccc([N+](=O)[O-])cc1)SCc1ccc(Br)cc1)c1ccc(Br)cc1` [Example 320], the IC50 in experiment [1] and in experiment [2] was 1 to 10 µM in each case.
Turning to `O=C(C(=Cc1cccnc1)SCc1ccc(Cl)cc1)c1ccc(Br)cc1` [Example 321], the IC50 in experiment [1] and in experiment [2] was 1 to 10 µM each time.
On to `O=C(C(=Cc1cccnc1)SCc1ccc(Cl)cc1)c1ccc(Cl)cc1` [Example 322], for which the IC50 in experiment [1] and in experiment [2] was 1 to 10 µM throughout.
On to `O=C(O)c1ccc(C=C(SCc2ccc(Cl)cc2)C(=O)c2ccc(C(=O)O)cc2)cc1` [Example 323], for which the IC50 in experiment [1] and in experiment [2] was greater than 100 µM each time.
For `O=C(C(=Cc1ccc(Cl)cc1)SCc1ccc(Cl)cc1)c1ccc(Cl)cc1` [Example 324], the results for the IC50 in experiment [1] and in experiment [2] were 1 to 10 µM and 10 to 25 µM, respectively.

The record behind these values is US8808702B2, “Sulfide, sulfoxide and sulfone chalcone analogues, derivatives thereof and therapeutic uses thereof” (Temple University-of the Commonwealth System of Higher …, priority 2006, dated 2014).
